In patent publication US8841294B2, “Active ingredient combinations having insecticidal and acaricidal properties” (Bayer Cropscience AG, priority 1999, dated 2014):

How the values were obtained:
Assay type in all cases: in vivo
[1] = tested on: cotton aphid (Aphis gossypii); assay: Aphis gossypii test; conditions: single active compound, 1.6 ppm, cotton leaves dipped
Experimental: (§1) To produce a suitable preparation of active compound, 1 part by weight of active compound is mixed with the stated amounts of solvent and emulsifier, and the concentrate is diluted with water to the desired concentrations.
Cotton leaves (Gossypium hirsutum) which are heavily infested by the cotton aphid (Aphis gossypii) are treated by being dipped into the preparation of active compound of the desired concentration.
After the desired period of time, the kill in % is determined. 100% means that all aphids have been killed; 0% means that none of the aphids have been killed. The kill rates that are determined are assessed using Colby's formula.

[2] = tested on: larvae of the cotton aphid (Aphis gossypii); assay: Aphis gossypii test/larval mortality; conditions: single active compound, 1.6 ppm, cotton leaves dipped
Experimental: Aphis Gossypii Test/Larval Mortality
as §1
Cotton leaves (Gossypium hirsutum) which are heavily infested by adults and larvae of the cotton aphid (Aphis gossypii) are treated by being dipped into the preparation of active compound of the desired concentration.
After the desired period of time, the kill of larvae in % is determined. 100% means that all larvae have been killed; 0% means that none of the larvae have been killed. The kill rates that are determined are assessed using Colby's formula.

[3] = tested on: peach aphid (Myzus persicae); assay: Myzus test; conditions: single active compound, 1.6 ppm, cabbage leaves dipped
Experimental: as §1
Cabbage leaves (Brassica oleracea) which are heavily infested by the peach aphid (Myzus persicae) are treated by being dipped into the preparation of active compound of the desired concentration.
After the desired period of time, the kill in % is determined. 100% means that all animals have been killed; 0% means that none of the animals have been killed. The kill rates determined are assessed using Colby's formula.

[4] = tested on: larvae of the peach aphid (Myzus persicae); assay: Myzus test/larval mortality; conditions: single active compound, 0.32 ppm, cabbage leaves dipped
Experimental: Myzus Test/Larval Mortality
as §1
Cabbage leaves (Brassica oleracea) which are heavily infested by adults and larvae of the peach aphid (Myzus persicae) are treated by being dipped into the preparation of active compound of the desired concentration.
After the desired period of time, the kill of the larvae in % is determined. 100% means that all larvae have been killed; 0% means that none of the larvae have been killed. The kill rates determined are assessed using Colby's formula.

Compound	Kill rates in % after 6d [1] [%]	Kill rate in % after 6d (larvae) [2] [%]	Kill rates in % after 1d [3] [%]	Kill rates in % after 1d (larvae) [4] [%]
N#C/N=C1\SCCN1Cc1ccc(Cl)nc1 [Ex. (IIk)]	55	60		
O=[N+]([O-])/N=C1\NCCN1Cc1ccc(Cl)nc1 [Ex. (IIa)]	85	80	70	0
CCC(C)(C)C(=O)OC1=C(c2ccc(Cl)cc2Cl)C(=O)OC12CCCCC2 [Ex. (Ia)]	0	0	0	0
